Data set [1] in a line: UV/VIS absorption spectra. Type of data set: physicochemical. Conditions: for λmax (UV/VIS spectrum): in H2O, 5 - 16 µM (Figure 13) or 4 - 15 µM (Figure 14); for bathochromic shift compared to the absorption maximum of Li-Cor-A: versus λmax = 680 nm.
For the next data set, the system named is prostate cancer cells. The data set can be described thus: PIT controls on the prostate cancer cell lines of Figure 16E (free dye; conjugate without irradiation). Type of data set: cell-based, human. Particulars: equimolar concentrations of free dye, 32 J/cm^2 red light, in words. The protocol: 2.5*10^5 cells were seeded per well in 35 mm cell culture dishes (Thermo Fischer Scientific) and cultivated for 24 h in the incubator (37°C, 5% CO2). On the next day, cell culture medium was removed and fresh medium containing the appropriate treatment (medium, 10 µg/ml antibody, 10 µg/ml conjugate or the equimolar amount of free dye) was administered to the cells. After incubation (37°C, 5% CO2, 24h), the cells were washed with 1x PBS and irradiated with a red light-emitting diode (LED), which emits light at λmax = 680 nm (L690-66-60, Marubeni, Tokyo, Japan) or a LED, which emits light at (λmax = 780 nm) (L780-66-60-550) at various mean irradiation doses. Power densities were quantified with an optical power meter (PM 100, Thorlabs, Newton, USA). After 24h, cell viability was analyzed using the vital dye erythrosine b (Logos Biosystems, Gyeonggi-do, South Korea) and the Neubauer Counting Chamber. Significance of the data was calculated with the Student's t test (unpaired, parametric with Welch's […]) using the GraphPad Prism 7 software (GraphPad Software Inc., San Diego, USA).

Regarding “2-(4-Iodophenoxy)-29,31-bis[(3,4,5-tris{[1-(sodium 3-sulfonatopropyl)-1,2,3-triazol-4-yl]methoxy}phenyl)methoxy]silanediyl-29H,31H-silicon tribenzophthalocyanine [compound 31]”, the “λalmost max (UV/VIS spectrum)” value in data set [1] (4 - 15 µM in H2O, pathlength = 1 cm) was found to be 765 nm. For the same substance, in data set [1] (pathlength = 1 cm), the “λmax (UV/VIS spectrum)” value is reported as 795 nm.

In the case of “2-(4-[4-({[7-oxo-7-(perfluorophenoxy) heptyl]ca rbamoyl} oxy) but-1-yn-1-yl]phenoxy)-29,31-bis[(3,4,5-tris{[1-(sodium 3-sulfonatopropyl)-1,2,3-triazol-4-yl]methoxy}phenyl)methoxy]silanediyl-29H,31H-silicon phthalocyanine [WB692-LB2]”, in data set [1], the “absorption maximum λmax in the UV/VIS spectrum” value (“absorption maximum λmax” below) was determined as 692 nm and the “bathochromic shift compared to the absorption maximum of Li-Cor-A” value (“bathochromic shift” for short) is recorded as 12 nm.

As for “2-({[({4-[(2,5-Dihydro-1H-2,5-dioxopyrrol-1-yl)oxy]-4-oxobut-1-yl}amino)-carbonyloxy]but-1-ynyl}phenoxy)-29,31-bis[(3,4,5-tris{[1-(sodium 3-sulfonatopropyl)-1,2,3-tri-azol-4-yl]methoxy}phenyl)methoxy]silanediyl-29H,31H-silicon tribenzophthalocyanine [WB795-LB1]”, in data set [1], the “absorption maximum λmax” value was 795 nm and the “bathochromic shift” value was 115 nm.

For “2-({[({6-[(2,5-Dihydro-1H-2,5-dioxopyrrol-1-yl)oxy]-6-oxohex-1-yl}amino)-carbonyloxy]but-1-ynyl}phenoxy)-29,31-bis[(3,4,5-tris{[1-(sodium 3-sulfonatopropyl)-1,2,3-tri-azol-4-yl]methoxy}phenyl)methoxy]silanediyl-29H,31H-silicon phthalocyanine [WB692-LB1]”, in data set [1], the “absorption maximum λmax” value was determined as 692 nm and the “bathochromic shift” value is 12 nm.

With “2-[({5-[(1H-2,5-Dioxopyrrol-1-yl)pent-1-yl]amino]carbonylamino)}but-1-yn-yl)phenoxy]-29,31-bis[(3,4,5-tris{[1-(sodium 3-sulfonatopropyl)-1,2,3-triazol-4-yl]methoxy}-phenyl)methoxy]silanediyl-29H,31H-silicon tribenzophthalocyanine [WB795-CB1]”, in data set [1], the “absorption maximum λmax” value came out at 795 nm and the “bathochromic shift” value is listed as 115 nm.

For “2-[({5-[(1H-2,5-Dioxopyrrol-1-yl)pent-1-yl]amino]carbonylamino)}but-1-yn-yl)phenoxy]-29,31-bis[(3,4,5-tris{[1-(sodium 3-sulfonatopropyl)-1,2,3-triazol-4-yl]methoxy}-phenyl)methoxyjsilanediyl-29H,31H-silicon phthalocyanine [WB692-CB2]”, in data set [1], the “absorption maximum λmax” value amounted to 692 nm and the “bathochromic shift” value is reported as 12 nm.

For “2-[({5-[(1H-2,5-Dioxopyrrol-1-yl)pent-1-yl]amino]carbonyloxy)}but-1-yn-yl)phenoxy]-29,31-bis[(3,4,5-tris{[1-(sodium 3-sulfonatopropyl)-1,2,3-triazol-4-yl]methoxy}-phenyl)methoxyjsilanediyl-29H,31H-silicon phthalocyanine [WB692-CB1]”, in data set [1], the “absorption maximum λmax” value stood at 692 nm and the “bathochromic shift” value worked out at 12 nm. Moreover, the “λmax (UV/VIS spectrum)” value in data set [1] (pathlength = 1 cm) came to 692 nm. Besides, the “viability of irradiated cells incubated with free dye” value in the data set with prostate cancer cells is recorded as “remained alive”.

The record behind these values is patent EP4435060A1, “SILICON PHTHALOCYANINE AND TRIBENZOPHTHALOCYANINE DYES AND THEIR USE IN DIAGNOSIS AND THERAPY” (Albert-Ludwigs-Universität Freiburg, priority 2023, dated 2024).
